For orientation: IC50 means the concentration that inhibits the measured activity by half.

For the assay, the target named is T1, Recombinant human EP300 containing the bromodomain (EP300-BD (1040-1161)) (Homo sapiens, UniProt Q09472).
T1 construct: Recombinant human EP300 bromodomain (EP300-BD (1040-1161)); made in house; host or cells: E. coli BL21-CodonPlus (DE3), modified pET vector
T1 sequence (Q09472 1040-1161): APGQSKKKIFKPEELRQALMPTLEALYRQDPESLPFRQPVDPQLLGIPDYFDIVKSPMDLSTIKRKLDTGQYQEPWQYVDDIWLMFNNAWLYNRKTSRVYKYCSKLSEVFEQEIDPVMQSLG
The assay can be described thus: EP300 Alphascreen binding assay. In a few lines:
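Displacement of a biotinylated acetyl-K56 histone H3 peptide from the N-His bromodomain construct (1040-1161) measured by AlphaScreen proximity, beads at 7.5 μg/ml final, read 60 min after addition. Protein, peptide and compound first incubated 1 h at room temperature, pH 7.5 HEPES buffer; IC50 by four-parameter logistic fit.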

Consider `CCCn1nc(C(=O)O)c(NCC)c1-c1cn(-c2ccc(F)cc2F)c2ncc(-c3c(C)noc3C)cc12` [P-0304, 5-(1-(2,4-difluorophenyl)-5-(3,5-dimethylisoxazol-4-yl)-1H-pyrrolo[2,3-b]pyridin-3-yl)-4-(ethylamino)-1-propyl-1H-pyrazole-3-carboxylic acid], for which the IC50 fell in the range of 0.0001 to 1 µM.

On to `Cc1nnn(C)c1-c1cnc2c(c1)c(-c1ccc(C(=O)O)cc1OC(F)(F)F)cn2CC/C=C/C1CC1` [P-0305, (E)-4-(1-(4-cyclopropylbut-3-en-1-yl)-5-(1,4-dimethyl-1H-1,2,3-triazol-5-yl)-1H-pyrrolo[2,3-b]pyridin-3-yl)-3-(trifluoromethoxy)benzoic acid], for which the IC50 was 0.0001 to 1 µM.

`Cc1noc(C)c1-c1cnc2c(c1)c(-c1ccc(C(=O)O)cc1OCC(F)F)cn2-c1ccncc1Cl` [P-0306, 4-(1-(3-chloropyridin-4-yl)-5-(3,5-dimethylisoxazol-4-yl)-1H-pyrrolo[2,3-b]pyridin-3-yl)-3-(2,2-difluoroethoxy)benzoic acid]: the half-inhibitory concentration (IC50) lay in the range of 0.0001 to 1 µM.

As to `Cc1noc(C)c1-c1cnc2c(c1)c(-c1ccc(C(=O)O)cc1OC(F)(F)F)cn2-c1ccccc1Cl` [P-0307, 4-(1-(2-chlorophenyl)-5-(3,5-dimethylisoxazol-4-yl)-1H-pyrrolo[2,3-b]pyridin-3-yl)-3-(trifluoromethoxy)benzoic acid], the IC50 lay in the range of 0.0001 to 1 µM.

Turning to `Cc1noc(C)c1-c1cnc2c(c1)c(-c1ccc(C(=O)O)cc1OC(F)(F)F)cn2-c1ccccc1C1CC1` [P-0308, 4-(1-(2-cyclopropylphenyl)-5-(3,5-dimethylisoxazol-4-yl)-1H-pyrrolo[2,3-b]pyridin-3-yl)-3-(trifluoromethoxy)benzoic acid], the half-inhibitory concentration (IC50) lay in the range of 0.0001 to 1 µM.

As to `Cc1noc(C)c1-c1cnc2c(c1)c(-c1ccc(C(=O)O)cc1OC(F)(F)F)cn2-c1ccccc1C#N` [P-0309, 4-(1-(2-cyanophenyl)-5-(3,5-dimethylisoxazol-4-yl)-1H-pyrrolo[2,3-b]pyridin-3-yl)-3-(trifluoromethoxy)benzoic acid], the IC50 is 0.0001 to 1 µM.

For the compound `Cc1cc(C#N)ccc1-n1cc(-c2ccc(C(=O)O)cc2OC(F)(F)F)c2cc(-c3c(C)noc3C)cnc21` [P-0310, 4-(1-(4-cyano-2-methylphenyl)-5-(3,5-dimethylisoxazol-4-yl)-1H-pyrrolo[2,3-b]pyridin-3-yl)-3-(trifluoromethoxy)benzoic acid], the IC50 lay in the range of 0.0001 to 1 µM.

As to `COc1ccc(-n2cc(-c3ccc(C(=O)O)cc3OC(F)(F)F)c3cc(-c4c(C)noc4C)cnc32)c(F)c1` [P-0311, 4-(5-(3,5-dimethylisoxazol-4-yl)-1-(2-fluoro-4-methoxyphenyl)-1H-pyrrolo[2,3-b]pyridin-3-yl)-3-(trifluoromethoxy)benzoic acid], the IC50 lay within 0.0001 to 1 µM.

Regarding `C=C(C)c1ccccc1-n1cc(-c2ccc(C(=O)O)cc2OC(F)(F)F)c2cc(-c3c(C)noc3C)cnc21` [P-0312, 4-(5-(3,5-dimethylisoxazol-4-yl)-1-(2-(prop-1-en-2-yl)phenyl)-1H-pyrrolo[2,3-b]pyridin-3-yl)-3-(trifluoromethoxy)benzoic acid], the IC50 lay within 0.0001 to 1 µM.

Turning to `Cc1noc(C)c1-c1cnc2c(c1)c(-c1ccc(C(=O)O)cc1OC(F)(F)F)cn2-c1ccc(C#N)cc1` [P-0313, 4-(1-(4-cyanophenyl)-5-(3,5-dimethylisoxazol-4-yl)-1H-pyrrolo[2,3-b]pyridin-3-yl)-3-(trifluoromethoxy)benzoic acid], the half-inhibitory concentration (IC50) was 0.0001 to 1 µM.

Take `Cc1noc(C)c1-c1cnc2c(c1)c(-c1ccc(C(=O)O)cc1OC(F)(F)F)cn2-c1ccc(C(C)(C)O)cc1` [P-0314, 4-(5-(3,5-dimethylisoxazol-4-yl)-1-(4-(2-hydroxypropan-2-yl)phenyl)-1H-pyrrolo[2,3-b]pyridin-3-yl)-3-(trifluoromethoxy)benzoic acid]: the IC50 lay within 0.0001 to 1 µM.

In the case of `Cc1noc(C)c1-c1cnc2c(c1)c(-c1ccc(C(=O)O)cc1OC(F)(F)F)cn2-c1ccsc1` [P-0315, 4-(5-(3,5-dimethylisoxazol-4-yl)-1-(thiophen-3-yl)-1H-pyrrolo[2,3-b]pyridin-3-yl)-3-(trifluoromethoxy)benzoic acid], the IC50 fell in the range of 0.0001 to 1 µM.

For the origin of these results see patent publication US11446287B2, “Compounds and methods for EP300 or CBP modulation and indications therefor” (Opna Immuno-Oncology SA, priority 2019, dated 2022).
